The test system of assay [1] is hα6(S233C) + WT hβ2 + hβ3^V9’S nAChR. The following applies: 100 μM nicotine; higher, p < 0.05. As for the experimental part:
(§1) We planned to introduce identical amounts of cRNA, presumably producing equal amounts of each subunit protein, into oocytes largely due to lack of information about the levels of mRNA for each subunits that compose α6*-nAChRs in neurons or other cells. Concentrations of cRNAs for each nAChR α and β subunits (WT, mutant or variant) were adjusted to 500 ng μL^−1. We provisionally assumed that hα6 or its variants in association with hβ2 or hβ4 subunits would form complexes having 2:3 and/or 3:2 ratios of the indicated subunits and that oocytes also injected with WT or mutant form of β3 subunits (i.e., β3^V9’S) would express nAChR with 2:2:1 ratios of α:β:(β3 or β3^V9’S) subunits. For expression of binary nAChRs (i.e., two subunit containing nAChRs; α + β but not β3) cRNA mixtures were prepared by mixing 1 μL of cRNA for each subunit and an additional μL of RNAse free water (i.e., total volume 3 μL). Similarly for expression of ternary nAChRs [i.e., three subunit containing nAChRs; (α + β) + (β3 or β3^V9’S)] cRNA mixtures were prepared by mixing 1 μL of cRNA for each subunit. Several preparations of each mixture were prepared and stored at −80°C until further use. Injection of 138 nL of cRNA, out of 3 μL cRNA mixtures, into each oocyte would deliver ~23 ng of cRNA for each subunit whether binary or ternary nAChRs are expressed.
(§2) Two to 5 days after injection, oocytes were placed in a small-volume chamber and continuously perfused with OR2. The chamber was grounded through an agarose bridge. The oocytes were voltage-clamped at −70 mV (unless otherwise noted) to measure agonist or antagonist induced currents using Axoclamp 900A and pClamp 10.2 software (Molecular Devices, Sunnyvale, CA). The current signal was low-pass filtered at 10 Hz with the built-in low-pass Bessel filter in the Axoclamp 900A and digitized at 20 Hz with Axon Digidata1440A and pClamp10. […] Drugs (agonists and antagonists) were prepared daily in OR2. Drug was applied using a Valvelink 8.2 perfusion system (Automate scientific, Berkeley, CA). […] Then for the purpose of comparison electrophysiological recordings were performed in a given day in a given batch of oocytes following the same order of injections. […] All hβ4*-nAChR recordings were done in similar conditions to facilitate comparisons between hα6hβ4- and hα6hβ4hβ3-nAChRs. All electrophysiological measurements were conducted or checked in at least two batches of oocytes.
(§3) Raw data was collected and processed in part using pClamp 10.2 (Molecular Devices, Sunnyvale, CA), Origin 7.5 (OriginLab Corporation, Northampton, MA) and a spreadsheet (Excel; Microsoft, Bellevue, WA). Peak current amplitudes (Imax) are reported as mean ± SEM (for results from at least three oocytes, i.e., n = 3).

The subject of assay [2] is hα6(R96H) + WT hβ2 + hβ3^V9’S nAChR. The following applies: 100 μM nicotine; higher, p < 0.05. As for the experimental part:
as §1, §2, §3

For assay [3], the target named is hα6(I226T) + WT hβ2 + hβ3^V9’S nAChR (Homo sapiens, UniProt P17787+Q15825, I226T). The following applies: 100 μM nicotine. The method, then: as §1, §2, §3
For assay [4], the target named is hα6(S233C) + codon optimized hβ2 + hβ3^V9’S nAChR (Homo sapiens, UniProt P17787+Q15825, S233C). The following applies: 100 μM nicotine; oocytes clamped at −70 mV. The method, then:
as §1, §2, §3

For assay [5], the target named is hα6(D57N) + WT hβ2 + hβ3^V9’S nAChR (Homo sapiens, UniProt P17787+Q15825, D57N). The following applies: nicotine. The method, then: as §1, §2, §3
Assay [6] concerns the target hα6(E101K) + WT hβ2 + hβ3^V9’S nAChR (Homo sapiens, UniProt P17787+Q15825, E101K). Conditions: 100 μM nicotine; 3 days after cRNA injection. As for the experimental part: as §1, §2, §3
For assay [7], the target named is hα6(A112V) + codon optimized hβ2 + hβ3^V9’S nAChR (Homo sapiens, UniProt P17787+Q15825, A112V). The following applies: 100 μM nicotine; oocytes clamped at −70 mV. As for the experimental part:
as §1, §2, §3

For another assay, the target named is hα6(S43P) + hβ4 nAChR (Homo sapiens, UniProt P30926+Q15825, S43P). The following applies: 100 μM nicotine; oocytes clamped at −70 mV. The method, then:
as §1, §2, §3

The target of assay [8] is hα6(A184D) + WT hβ2 + hβ3^V9’S nAChR (Homo sapiens, UniProt P17787+Q15825, A184D). Conditions: 100 μM nicotine; 3 days after cRNA injection. The method, then: as §1, §2, §3
Assay [9] concerns the target hα6(N46K) + WT hβ2 + hβ3^V9’S nAChR (Homo sapiens, UniProt P17787+Q15825, N46K). The following applies: nicotine. The method, then: as §1, §2, §3
Assay [10] deals with hα6(S156R) + hβ4 + hβ3 nAChR (Homo sapiens, UniProt P30926+Q15825, S156R). The following applies: nicotine. The method, then:
as §1, §2, §3

Assay [11] has as its target hα6(N203T) + hβ4 + hβ3 nAChR (Homo sapiens, UniProt P30926+Q15825, N203T). Conditions: 100 μM nicotine; oocytes clamped at −70 mV. As for the experimental part: as §1, §2, §3
Assay [12] concerns the target hα6(I226T) + hβ4 + hβ3 nAChR (Homo sapiens, UniProt P30926+Q15825, I226T). The following applies: 100 μM nicotine; oocytes clamped at −70 mV. As for the experimental part: as §1, §2, §3
Assay [13] deals with hα6(S43P) + hβ4 + hβ3 nAChR (Homo sapiens, UniProt P30926+Q15825, S43P). Conditions: 100 μM nicotine; oocytes clamped at −70 mV. The method, then:
as §1, §2, §3

In assay [14] the target is hα6(S156R) + WT hβ2 + hβ3^V9’S nAChR (Homo sapiens, UniProt P17787+Q15825, S156R). Conditions: nicotine. As for the experimental part:
as §1, §2, §3

A further assay has as its target hα6(I226T) + hβ4 nAChR (Homo sapiens, UniProt P30926+Q15825, I226T). Conditions: 100 μM nicotine; oocytes clamped at −70 mV. The method, then: as §1, §2, §3
In assay [15] the target is hα6(A184D) + codon optimized hβ2 + hβ3^V9’S nAChR (Homo sapiens, UniProt P17787+Q15825, A184D). The following applies: 100 μM nicotine; oocytes clamped at −70 mV. As for the experimental part: as §1, §2, §3
The next assay addresses hα6(N203T) + hβ4 nAChR (Homo sapiens, UniProt P30926+Q15825, N203T). Conditions: 100 μM nicotine; oocytes clamped at −70 mV. As for the experimental part: as §1, §2, §3

The record followed here is paper PMC4022547 (Molecular Brain, 2014).

hα6(I226T) + WT hβ2 + hβ3^V9’S nAChR, sequence (Q15825 26-494 I226T): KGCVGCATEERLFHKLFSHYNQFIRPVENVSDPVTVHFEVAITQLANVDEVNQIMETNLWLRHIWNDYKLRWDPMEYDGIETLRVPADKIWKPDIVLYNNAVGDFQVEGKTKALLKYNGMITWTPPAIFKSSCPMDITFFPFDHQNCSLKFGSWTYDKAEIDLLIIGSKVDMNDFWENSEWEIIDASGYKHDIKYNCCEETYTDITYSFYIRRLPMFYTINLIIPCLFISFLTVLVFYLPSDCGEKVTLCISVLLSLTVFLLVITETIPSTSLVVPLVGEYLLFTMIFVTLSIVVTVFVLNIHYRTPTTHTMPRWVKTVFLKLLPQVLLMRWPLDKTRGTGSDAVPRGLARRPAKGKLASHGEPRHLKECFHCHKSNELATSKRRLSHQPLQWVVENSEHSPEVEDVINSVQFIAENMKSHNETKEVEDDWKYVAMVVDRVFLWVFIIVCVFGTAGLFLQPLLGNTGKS
hα6(I226T) + WT hβ2 + hβ3^V9’S nAChR, sequence (P17787 26-502): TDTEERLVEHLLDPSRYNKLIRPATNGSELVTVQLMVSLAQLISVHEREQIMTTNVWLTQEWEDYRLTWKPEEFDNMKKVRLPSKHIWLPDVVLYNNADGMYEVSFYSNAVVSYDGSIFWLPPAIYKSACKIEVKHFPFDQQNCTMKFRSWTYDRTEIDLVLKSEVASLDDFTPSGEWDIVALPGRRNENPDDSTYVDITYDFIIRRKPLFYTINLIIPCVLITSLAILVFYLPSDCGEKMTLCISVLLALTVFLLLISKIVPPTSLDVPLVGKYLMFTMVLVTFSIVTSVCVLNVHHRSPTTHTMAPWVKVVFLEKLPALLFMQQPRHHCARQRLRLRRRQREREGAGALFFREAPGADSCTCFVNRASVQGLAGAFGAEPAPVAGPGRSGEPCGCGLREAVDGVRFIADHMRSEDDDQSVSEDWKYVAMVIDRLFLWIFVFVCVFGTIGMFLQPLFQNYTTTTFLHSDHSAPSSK
hα6(I226T) + WT hβ2 + hβ3^V9’S nAChR, sequence (Q05901 25-458 V273S partner limits assumed): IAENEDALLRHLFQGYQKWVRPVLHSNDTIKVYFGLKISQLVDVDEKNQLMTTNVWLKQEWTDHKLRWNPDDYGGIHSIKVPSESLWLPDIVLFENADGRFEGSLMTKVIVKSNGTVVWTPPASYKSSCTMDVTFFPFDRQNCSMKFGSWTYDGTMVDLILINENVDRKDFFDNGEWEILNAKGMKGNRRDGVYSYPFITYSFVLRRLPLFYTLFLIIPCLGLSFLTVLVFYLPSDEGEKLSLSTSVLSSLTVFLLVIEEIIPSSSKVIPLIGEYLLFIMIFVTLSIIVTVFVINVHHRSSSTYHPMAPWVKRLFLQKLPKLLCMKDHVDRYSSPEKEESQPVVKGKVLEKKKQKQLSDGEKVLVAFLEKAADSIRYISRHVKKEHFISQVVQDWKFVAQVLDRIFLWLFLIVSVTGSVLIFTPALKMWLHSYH
hα6(S156R) + hβ4 + hβ3 nAChR, sequence (Q15825 26-494 S156R): as the sequence (Q15825 26-494 I226T) above, with S131R, T201I counted along it
hα6(S156R) + hβ4 + hβ3 nAChR, sequence (P30926 22-498): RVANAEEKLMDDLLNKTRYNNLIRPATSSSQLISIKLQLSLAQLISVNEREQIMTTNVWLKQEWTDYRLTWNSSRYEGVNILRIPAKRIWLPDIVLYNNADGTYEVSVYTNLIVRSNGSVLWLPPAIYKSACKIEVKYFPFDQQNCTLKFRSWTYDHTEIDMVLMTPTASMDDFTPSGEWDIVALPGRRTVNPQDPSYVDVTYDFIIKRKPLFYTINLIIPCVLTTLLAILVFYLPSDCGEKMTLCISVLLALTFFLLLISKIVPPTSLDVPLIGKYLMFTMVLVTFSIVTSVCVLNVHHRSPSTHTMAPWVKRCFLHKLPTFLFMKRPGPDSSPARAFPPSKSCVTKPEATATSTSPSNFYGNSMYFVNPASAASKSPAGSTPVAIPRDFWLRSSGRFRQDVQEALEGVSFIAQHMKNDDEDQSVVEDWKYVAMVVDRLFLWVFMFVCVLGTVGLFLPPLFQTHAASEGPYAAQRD
hα6(S156R) + hβ4 + hβ3 nAChR, sequence (Q05901 25-458 partner limits assumed): as the sequence (Q05901 25-458 V273S partner limits assumed) above, with S249V counted along it
hα6(S156R) + WT hβ2 + hβ3^V9’S nAChR, sequence (Q15825 26-494 S156R): as the sequence (Q15825 26-494 I226T) above, with S131R, T201I counted along it
hα6(S156R) + WT hβ2 + hβ3^V9’S nAChR, sequence (P17787 26-502): as the sequence (P17787 26-502) above
hα6(S156R) + WT hβ2 + hβ3^V9’S nAChR, sequence (Q05901 25-458 V273S partner limits assumed): as the sequence (Q05901 25-458 V273S partner limits assumed) above

Regarding `CN1CCC[C@H]1c1cccnc1` [nicotine, L-nicotine], the “peak current response relative to hα6hβ2hβ3^V9’S-nAChRs” value in assay [1] and in assay [2] was 2-5 fold throughout. In addition, the peak current response in assay [3] (3 days after cRNA injection), in assay [6] and in assay [8] was 15-30 nA throughout. The “Mean (±SEM) current response” value in [3] (5 days after injection) amounted to 123 ± 40 nA. In addition, the “peak current (Imax, mean ± SE)” value came to 1582 ± 221 nA in assay [4]; 293 ± 24 nA in assay [7]; 39 ± 5 nA at hα6(S43P) + hβ4 nAChR; 81 ± 10 nA at hα6(I226T) + hβ4 nAChR; 616 ± 95 nA in assay [15]; 33 ± 3 nA at hα6(N203T) + hβ4 nAChR. The current response entry is “did not yield current responses” in assay [5], “did not yield current responses” in assay [9], “did not elicit current responses” in assay [10] and “did not yield current responses” in [14]. The “Mean (±SE) peak current response” value came out at 371 ± 68 nA in assay [11], 403 ± 79 nA in [12] and 208 ± 22 nA in [13].
